One assay concerns the target human BACE-1 (Homo sapiens, UniProt P56817). Put plainly: Test 1: Inhibition of human BACE-1. In kind it is biochemical. To be noted: recombinant BACE-1, pH 4.5, fluorescence-quenched APP-derived peptide substrate. As for the experimental part: Test 1: Inhibition of Human BACE-1
IC50 values are calculated from percentage of inhibition of BACE-1 activity as a function of the test compound concentration.

The subject of assay [1] is cellular release of amyloid peptide 1-40. Put plainly: Test 4: Inhibition of cellular release of amyloid peptide 1-40. In kind it is cell-based. The conditions noted are these: Cricetulus griseus, Chinese hamster ovary cells transfected with the gene for amyloid precursor protein, 24 hours with compound, amyloid peptide 1-40 in supernatant, read-out: Bace IC50. As for the experimental part:
Test 4: Inhibition of Cellular Release of Amyloid Peptide 1-40
Chinese hamster ovary cells are transfected with the gene for amyloid precursor protein. The cells are plated at a density of 8000 cells/well into 96-well microtiter plates and cultivated for 24 hours in DMEM cell culture medium containing 10% FCS. The test compound is added to the cells at various concentrations, and the cells are cultivated for 24 hours in the presence of the test compound. The supernatants are collected, and the concentration of amyloid peptide 1-40 is determined using state of the art immunoassay techniques, for example sandwich ELISA, homogenous time-resolved fluorescence (HTRF) immunoassay, or electro-chemiluminescence immunoassay. The potency of the compound is calculated from the percentage of inhibition of amyloid peptide release as a function of the test compound concentration.

Drawing on patent US20150322038A1, “PYRAZINE DERIVATIVES AND THEIR USE IN THE TREATMENT OF NEUROLOGICAL DISORDERS” (NOVARTIS AG, priority 2009, published 2015), this text covers IC50 for 20 molecules.

Structures can show the parent of a compound that is named as a salt.

Sequence of human BACE-1 (P56817 46-457 limits assumed): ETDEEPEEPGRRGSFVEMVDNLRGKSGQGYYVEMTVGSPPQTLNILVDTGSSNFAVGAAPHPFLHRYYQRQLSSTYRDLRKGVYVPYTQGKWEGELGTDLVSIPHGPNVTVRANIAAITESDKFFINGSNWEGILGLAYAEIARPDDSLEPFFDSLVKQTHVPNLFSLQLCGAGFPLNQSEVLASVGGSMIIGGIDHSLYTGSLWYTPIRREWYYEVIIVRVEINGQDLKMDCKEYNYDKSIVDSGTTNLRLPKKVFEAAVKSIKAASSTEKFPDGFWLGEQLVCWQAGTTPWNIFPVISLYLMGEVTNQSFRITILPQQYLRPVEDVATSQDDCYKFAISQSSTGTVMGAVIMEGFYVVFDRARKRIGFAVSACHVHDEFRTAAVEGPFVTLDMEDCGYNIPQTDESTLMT

Take `CCC1C(N)=NC(C)(c2cccc(NC(=O)c3ccc(Br)cn3)c2)C(=O)N1C` (mixture of isomers) [Example 15, 5-Bromo-pyridine-2-carboxylic acid [3-(6-amino-5-ethyl-2,4-dimethyl-3-oxo-2,3,4,5-tetrahydro-pyrazin-2-yl)-phenyl]-amide]: the half-inhibitory concentration (IC50) at human BACE-1 amounted to 1300 nM; in assay [1], 980 nM.

Consider `Cc1cc(OC(F)F)cnc1C(=O)Nc1ccc(F)c([C@]2(C(F)F)CNCC(N)=N2)c1` (single isomer, unassigned) [Example 27], for which the figures for the IC50 (on human BACE-1; in assay [1]) were 22 nM and 12 nM, respectively. In the same order, the values of `COc1cnc(C(=O)Nc2ccc(F)c([C@]3(C(F)F)CNCC(N)=N3)c2)c(N)n1` (single isomer, unassigned) [Example 28] are 20 nM and 5.7 nM.

As for `CN1CC(N)=NC(C)(c2cc(NC(=O)c3ccc(Br)cn3)ccc2F)C1=O` (stereo not drawn) [Example 1, 5-Bromo-pyridine-2-carboxylic acid [3-(6-amino-2,4-dimethyl-3-oxo-2,3,4,5-tetrahydro-pyrazin-2-yl)-4-fluoro-phenyl]-amide], the values for the IC50 (at human BACE-1; in assay [1]) were 4100 nM and 3200 nM, respectively. As to `CN1CC(N)=NC(C)(c2cc(NC(=O)c3ccc(Br)cn3)ccc2F)C1` (stereo not drawn) [Example 2, 5-Bromo-pyridine-2-carboxylic acid [3-(6-amino-2,4-dimethyl-2,3,4,5-tetrahydro-pyrazin-2-yl)-4-fluoro-phenyl]-amide], the IC50 on human BACE-1 turned out to be 180 nM; in assay [1], 120 nM. The like results for `CN1CC(N)=NC(C)(c2cccc(NC(=O)c3ccc(Br)cn3)c2)C1=O` (stereo not drawn) [Example 3, 5-Bromo-pyridine-2-carboxylic acid [3-(6-amino-2,4-dimethyl-3-oxo-2,3,4,5-tetrahydro-pyrazin-2-yl)-phenyl]-amide] were, in that order, 400 nM and 260 nM. On to `CN1CC(C)(c2cc(NC(=O)c3ccc(Br)cn3)ccc2F)N=C(N)C1=O` (stereo not drawn) [Example 4, 5-Bromo-pyridine-2-carboxylic acid [3-(6-amino-2,4-dimethyl-5-oxo-2,3,4,5-tetrahydro-pyrazin-2-yl)-4-fluoro-phenyl]-amide hydrochloride], for which the values for the IC50 (at human BACE-1; in assay [1]) were 95 nM and 91 nM, respectively. With `CN1CC(C)(c2cc(NC(=O)c3ccc(Cl)cn3)ccc2F)N=C(N)C1=O` (stereo not drawn) [Example 5, 5-Chloro-pyridine-2-carboxylic acid [3-(6-amino-2,4-dimethyl-5-oxo-2,3,4,5-tetrahydro-pyrazin-2-yl)-4-fluoro-phenyl]-amide hydrochloride], the half-maximal inhibitory concentration (IC50) in assay [1] worked out at 190 nM. For the molecule `CCN1CC(C)(c2cc(NC(=O)c3ccc(Br)cn3)ccc2F)N=C(N)C1=O` (stereo not drawn) [Example 6, 5-Bromo-pyridine-2-carboxylic acid [3-(6-amino-4-ethyl-2-methyl-5-oxo-2,3,4,5-tetrahydro-pyrazin-2-yl)-4-fluoro-phenyl]-amide hydrochloride], the figures for the IC50 (at human BACE-1; in assay [1]) were 51 nM and 59 nM, respectively. On to `CN1CC(C)(c2cc(NC(=O)c3ncc(Cl)cc3Cl)ccc2F)N=C(N)C1=O` (stereo not drawn) [Example 7, 3,5-Dichloro-pyridine-2-carboxylic acid [3-(6-amino-2,4-dimethyl-5-oxo-2,3,4,5-tetrahydro-pyrazin-2-yl)-4-fluoro-phenyl]-amide hydrochloride], for which the 50% inhibitory concentration (IC50) on human BACE-1 amounted to 68 nM; in assay [1], 160 nM. `CCN1CC(C)(c2cc(NC(=O)c3ncc(Cl)cc3Cl)ccc2F)N=C(N)C1=O` (stereo not drawn) [Example 8, 3,5-Dichloro-pyridine-2-carboxylic acid [3-(6-amino-4-ethyl-2-methyl-5-oxo-2,3,4,5-tetrahydro-pyrazin-2-yl)-4-fluoro-phenyl]-amide hydrochloride]: the IC50 at human BACE-1 was 21 nM; in assay [1] it was 74 nM.

Regarding `CC(C)N1CC(C)(c2cc(NC(=O)c3ccc(Br)cn3)ccc2F)N=C(N)C1=O` (stereo not drawn) [Example 9, 5-Bromo-pyridine-2-carboxylic acid [3-(6-amino-4-isopropyl-2-methyl-5-oxo-2,3,4,5-tetrahydro-pyrazin-2-yl)-4-fluoro-phenyl]-amide hydrochloride], the figures for the IC50 (on human BACE-1; in assay [1]) were 33 nM and 37 nM, respectively. In the same order, the values of `COCCN1CC(C)(c2cc(NC(=O)c3ncc(Cl)cc3Cl)ccc2F)N=C(N)C1=O` (stereo not drawn) [Example 10, 3,5-Dichloro-pyridine-2-carboxylic acid {3-[6-amino-4-(2-methoxy-ethyl)-2-methyl-5-oxo-2,3,4,5-tetrahydro-pyrazin-2-yl]-4-fluoro-phenyl}-amide hydrochloride] are 34 nM and 74 nM. In the same order, the values of `COCCN1CC(C)(c2cc(NC(=O)c3ccc(Br)cn3)ccc2F)N=C(N)C1=O` (stereo not drawn) [Example 11, 5-Bromo-pyridine-2-carboxylic acid {3-[6-amino-4-(2-methoxy-ethyl)-2-methyl-5-oxo-2,3,4,5-tetrahydro-pyrazin-2-yl]-4-fluoro-phenyl}-amide hydrochloride] are 20 nM and 40 nM. In the same order, the values of `Cn1cc(N2CC(C)(c3cc(NC(=O)c4ccc(Br)cn4)ccc3F)N=C(N)C2=O)cn1` (stereo not drawn) [Example 12, 5-Bromo-pyridine-2-carboxylic acid {3-[6-amino-2-methyl-4-(1-methyl-1H-pyrazol-4-yl)-5-oxo-2,3,4,5-tetrahydro-pyrazin-2-yl]-4-fluoro-phenyl}-amide hydrochloride] are 20 nM and 84 nM. Turning to `CC1(c2cc(NC(=O)c3ccc(Br)cn3)ccc2F)CN(c2cccnc2)C(=O)C(N)=N1` (stereo not drawn) [Example 13, 5-Bromo-pyridine-2-carboxylic acid [3-(6-amino-2-methyl-5-oxo-4-pyridin-3-yl-2,3,4,5-tetrahydro-pyrazin-2-yl)-4-fluoro-phenyl]-amide hydrochloride], the IC50 is 7 nM at human BACE-1 and 280 nM in assay [1]. Consider `CCN1CC(C)(c2cc(NC(=O)c3ccc(C#N)cn3)ccc2F)N=C(N)C1=O` (stereo not drawn) [Example 14, 5-Cyano-pyridine-2-carboxylic acid [3-(6-amino-4-ethyl-2-methyl-5-oxo-2,3,4,5-tetrahydro-pyrazin-2-yl)-4-fluoro-phenyl]-amide hydrochloride], for which the 50% inhibitory concentration (IC50) is 63 nM on human BACE-1 and 130 nM in assay [1]. `NC1=NC(c2cc(NC(=O)c3ccc(Br)cn3)ccc2F)(C(F)F)CNC1` (stereo not drawn) [Example 16, 5-Bromo-pyridine-2-carboxylic acid [3-(6-amino-2-difluoromethyl-2,3,4,5-tetrahydro-pyrazin-2-yl)-4-fluoro-phenyl]-amide]: the values for the IC50 (on human BACE-1; in assay [1]) were 30 nM and 6.7 nM, respectively. The like results for `N#Cc1ccc(C(=O)Nc2ccc(F)c(C3(C(F)F)CNCC(N)=N3)c2)nc1` (stereo not drawn) [Example 17, 5-Cyano-pyridine-2-carboxylic acid [3-(6-amino-2-difluoromethyl-2,3,4,5-tetrahydro-pyrazin-2-yl)-4-fluoro-phenyl]-amide] were, in that order, 28 nM and 74 nM. In the case of `N#Cc1ccc(C(=O)Nc2ccc(F)c(C3(C(F)F)CNC(=O)C(N)=N3)c2)nc1` (stereo not drawn) [Example 18, 5-Cyano-pyridine-2-carboxylic acid [3-(6-amino-2-difluoromethyl-5-oxo-2,3,4,5-tetrahydro-pyrazin-2-yl)-4-fluoro-phenyl]-amide], the IC50 was 21 nM at human BACE-1 and 61 nM in assay [1].
